Each block holds one molecule with its values, some of them ahead of it.
Tests used:
BRD4-1 [1] = target: T1, BRD4-1 (Homo sapiens, UniProt O60885); experiment: BRD4-1 Ligand KI assay (TR-FRET, Cy5 labeled probe displacement); type: binding
T1 construct: made in house; host or cells: Escherichia coli
Description: (§1) Binding of the two tandem bromodomains, BRD4-I and BRD4-2, to a Cy5 labeled probe/ligand (Compound 1020-501) were measured using a homogeneous time resolved fluorescence resonance energy transfer (TR-FRET) assay.
(§2) The labeled ligand specifically binds BRD4-1 and BRD4-2 and can be displaced by a small molecule inhibitor that shares a similar or overlapping binding site. BRD4-I and BRD4-2 were expressed and purified from Escherichia coli as N-terminal His6-tagged proteins. A Eu-cryptate labeled anti-His antibody (Perkin Elmer) was used to specifically bind BRD4. […] Assays were performed in 50 mM Hepes (pH 7.5), 150 mM NaCl, 0.1 mg/ml BSA, 0.01% (v/v) Brij, 0.5% (v/v) DMSO and 1.0 nM labeled ligand at the following concentrations for each BRD4 isoform: 2 nM BRD4-1 and 0.5 nM BRD4-2. After an assay reaction time of 60 minutes at 25° C., binding was measured with 2 nM Eu-cryptate labeled anti-His antibody. TR-FRET signal was detected on an Envision plate reader (Ex: 320 nm; Em: 615/665 nm; 100 μs delay and 200 μs read window). […] All IC50 values represent geometric mean values of a minimum of four determinations. The IC50 values were converted to Ki values (dissociation constant for BRD4-inhibitor complex) using the Cheng and Prusoff equation for a competitive inhibitor mode of action. These assays generally produced results within 3-fold of the reported mean.

BRD4-2 [2] = target: T2, BRD4-2 (Homo sapiens, UniProt O60885); experiment: BRD4-2 Ligand KI assay (TR-FRET, Cy5 labeled probe displacement); type: binding
T2 construct: made in house; host or cells: Escherichia coli
Description: as §1, §2

c-Myc in MM.1S cells = experiment: c-Myc down regulation assay (MSD) in MM.1S cells; type: cell-based; settings: Homo sapiens, MM1.S, 24 hrs incubation
Description: An enzyme linked immunosorbent assay using the Meso Scale Diagnostic (MSD) technology was used to detect levels of c-Myc produced in MM.1S cells (ATCC). MM.1S cells were cultured in RPMI-1640 media (Corning), supplemented with 10% FBS (Hyclone), 1% penicillin-streptomycin (Cellgro), 2-mercaptoethanol (Gibco) and seeded onto 384-tissue culture treated filter binding plates (Millipore) at a density of 40K cells/well containing titrations of small molecule inhibitors or DMSO (0.4%) in a volume of […] of media. After an incubation time of 24 hrs, cells were lysed (1× lysis buffer (Thermo) supplemented with protease and phosophatase inhibitor cocktail (Thermo)) and the plates centrifuged (1000 rpm, 1 min) to capture c-Myc on MSD plates coated with a monoclonal c-Myc antibody (Origene). Assay wells were washed (3× Invitrogen wash buffer) and probed with a polyclonal c-Myc antibody (Abeam) and MSD detection antibody solution in order to detect levels of c-Myc on the MSD platform. c-Myc capture was reported in pg/ml based on a standard curve using recombinant c-Myc protein (Prosci). EC50 values were calculated from the fit of the dose-response curves to a four-parameter equation. All EC50 values represent geometric mean values of a minimum of four determinations. These assays generally produced results within 3-fold of the reported mean.

MM.1S cells = experiment: MM.1S viability assay (CellTiter Glo); type: cell-based; settings: Homo sapiens, MM1.S, 72 hr incubation, read-out: MM.1S Cell viability (EC50)
Description: For cell viability in the MM.1S cell line, cells were seeded onto 384-tissue culture treated plates (Greiner) at a density of 60K cells/well containing titrations of small molecule inhibitors or DMSO (0.2%). After 72 hr incubation cells were analyzed for cell viability by addition of CellTiter Glo (Promega) to the assay plates. After 15 min incubation at room temperature the signal from the viable cells was analyzed on an Envision plate reader (Perkin Elmer). EC50 values were calculated from the fit of the dose-response curves to a four-parameter equation. All EC50 values represent geometric mean values of a minimum of four determinations. These assays generally produced results within 3-fold of the reported mean.

MT-4 cells = experiment: MT-4 proliferation assay; type: cell-based; settings: Homo sapiens, MT4, 120 h; Table 2; 5 days, Cell Titer Glo luminescence
Description: Compounds were tested in a standardized high-throughput 384-well assay format. Each compound was serially diluted 3-fold in 100% DMSO in polypropylene 384-well plates using a Biomek FX Workstation, and 0.4 μL compound added to an assay plate containing 40 μL RPMI media. Compounds were arranged in a horizontal pattern, with 10 concentrations per compound, and 8 compounds added per plate. Due to low DMSO tolerability, the final DMSO concentration never exceeded 0.5% (v/v). Each assay plate contained 10 μM Puromycin and 0.5% DMSO in RPMI-1640 as positive and negative controls respectively. MT-4 cells (HTLV-1 transformed, human T lymphoblastoid cells, NIH Aids Reagent program) were added in volumes of 35 μL per well and 2,000 cells per well using a Biotek uFlow Workstation (Biotek, Winooski, Vt.), and the plates subsequently incubated for 5 days at 37° C. in an incubator set at 5% CO2 and 90% humidity.
After 5 days, 22 μL Cell Titer Glo (Promega) was added to the assay plates with a Biotek uFlow Workstation. Plates were subsequently placed on a Perkin Elmer Envision Plate Reader for 5 minutes before the luminescence signal was read.

BRD4-2 [3] = target: T2, BRD4-2; experiment: HTRF (TR-FRET) assay, BRD4-2 binding to acetylated histone H4 peptide; settings: 120 nM BRD4-2, 200 nM H4 peptide, 60 minutes at 25° C.; geometric mean of a minimum of four determinations; read-out: HTRF BRD4-2 (IC50)
Description: (§3) Binding of the two tandem bromodomains, BRD4-1 and BRD4-2, to an acetylated histone H4 peptide was measured using a homogeneous time resolved fluorescence resonance energy transfer (TR-FRET) assay. […] BRD4-1 and BRD4-2 were expressed and purified from Escherichia coli as N-terminal His6-tagged proteins. An XL665 labeled anti-His antibody (Cisbio) was used to specifically bind BRD4 and a cryptate labeled streptavidin protein was used because it specifically recognized the biotinylated H4 peptide. […] After an assay reaction time of 60 minutes at 25° C., binding was measured with 2 nM crytptate labeled streptavidin and 10 nM anti-His-XL665 antibody. TR-FRET signal was detected on an Envision plate reader (Ex: 320 nm; Em: 615/665 nm; 100 us delay and 200 μs read window). […] All IC50 values represent geometric mean values of a minimum of four determinations.

BRD4-1 [4] = target: T1, BRD4-1; experiment: Alpha assay, BRD4-1 binding to acetylated histone H4 peptide; settings: 15 nM BRD4-1, 200 nM H4 peptide, 60 minutes at 25° C.; geometric mean of a minimum of four determinations; read-out: Alpha Assay (IC50)
Description: Binding of the bromodomain BRD4-I to an acetylated histone H4 peptide was measured using a bead-based Amplified Luminescent Proximity Homogeneous Assay (ALPHA). […] BRD4-I was expressed and purified from Escherichia coli as an N-terminal His6-tagged protein. Nickel-Chelate ALPHA acceptor beads (Perkin Elmer) were used to specifically bind BRD4-1 and ALPHA streptavidin donor beads (Perkin Elmer) were used because they specifically recognized the biotinylated H4 peptide. […] Assays were performed in 50 mM Hepes (pH 7.5), 150 mM NaCl, 0.1 mg/ml BSA, 0.01% (v/v) Brij, 0.5% (v/v) DMSO, 200 nM H4 peptide and 15 nM of BRD4-1 protein. After an assay reaction time of 60 minutes at 25° C., binding was measured with 20 μg/ml streptavidin donor beads and 20 μg/ml nickle-chelate acceptor beads. ALPHA signal was detected on an Envision plate reader (Ex: 320 nm; Em: 570 nm; Ex time: 180 ms). […] All IC50 values represent geometric mean values of a minimum of four determinations.

BRD4-1 [5] = target: T1, BRD4-1; experiment: HTRF (TR-FRET) assay, BRD4-1 binding to acetylated histone H4 peptide; settings: 60 nM BRD4-1, 200 nM H4 peptide, 60 minutes at 25° C.; geometric mean of a minimum of four determinations; read-out: HTRF BRD4-1 (IC50)
Description: as §3

[6] = 2 nM BRD4-1, 1.0 nM labeled ligand, 60 minutes at 25° C., read-out: BRD4-1 Ligand KI (IC50)
[7] = 0.5 nM BRD4-2, 1.0 nM labeled ligand, 60 minutes at 25° C., read-out: BRD4-2 Ligand KI (IC50)

SMILES: Cc1noc(C)c1-c1cc(C(O)(c2nccs2)c2nccs2)c2nc(C3CC3)[nH]c2c1 [Compound 1020-103, (2-cyclopropyl-6-(3,5-dimethylisoxazol-4-yl)-1H-benzo[d]imidazol-4-yl)di(thiazol-2-yl)methanol]
IC50 (BRD4-1 [1]; [6]): 4 nM
IC50 (BRD4-2 [2]; [7]): 12.4 nM

SMILES: Cc1cccc(C(O)(c2cc(-c3c(C)noc3C)cc3[nH]c(C4CC4)nc23)C2CCCO2)n1 (racemic) [Compound 1020-114, (2-cyclopropyl-6-(3,5-dimethylisoxazol-4-yl)-1H-benzo[d]imidazol-4-yl)(6-methylpyridin-2-yl)(tetrahydrofuran-2-yl)methanol]
IC50 (BRD4-1 [1]; [6]): 3.8 nM
IC50 (BRD4-2 [2]; [7]): 2.7 nM

SMILES: Cc1cnn(C)c1-c1cc(-c2c(C)noc2C)cc2nc(C3CC3)[nH]c12 [Compound 1020-12, 4-(2-Cyclopropyl-7-(1,4-dimethyl-1H-pyrazol-5-yl)-1H-benzo[d]imidazol-5-yl)-3,5-dimethylisoxazole]
IC50 (BRD4-2 [3]): 69.2 nM
IC50 (BRD4-1 [4]): 46.2 nM
IC50 (BRD4-1 [5]): 138 nM

SMILES: Cc1noc(C)c1-c1cc(C(O)(c2ccccn2)c2ccccn2)c2nc(C3CC3)[nH]c2c1F [Compound 1020-224, (2-cyclopropyl-6-(3,5-dimethylisoxazol-4-yl)-7-fluoro-1H-benzo[d]imidazol-4-yl)di(pyridin-2-yl)methanol]
IC50 (BRD4-1 [1]): 10.8 nM
IC50 (BRD4-2 [2]): 20.2 nM

SMILES: Cc1n[nH]c(C)c1-c1cc(-c2c(C)noc2C)cc2[nH]c(NCC3CC3)nc12 [Compound 1020-79, N-(Cyclopropylmethyl)-4-(3,5-dimethyl-1H-pyrazol-4-yl)-6-(3,5-dimethylisoxazol-4-yl)-1H-benzo[d]imidazol-2-amine]
IC50 (BRD4-2 [3]): 87.2 nM
IC50 (BRD4-1 [4]): 33.6 nM
IC50 (BRD4-1 [5]): 161 nM

SMILES: Cc1ccnc(C)c1-c1cc(-c2c(C)noc2C)cc2[nH]cnc12 [Compound 1020-84, 4-(4-(2,4-Dimethylpyridin-3-yl)-1H-benzo[d]imidazol-6-yl)-3,5-dimethylisoxazole]
IC50 (BRD4-2 [3]): 234 nM
IC50 (BRD4-1 [4]): 277 nM
IC50 (BRD4-1 [5]): 481 nM

The next lines start with results.

IC50 (BRD4-1 [1]; [6]): 7.2 nM
IC50 (BRD4-2 [2]; [7]): 11.7 nM
SMILES: Cc1noc(C)c1-c1cc(C(O)(c2ccccn2)c2ccccn2)c2nc(C3CC3)[nH]c2c1 [Compound 1020-104, (2-cyclopropyl-6-(3,5-dimethylisoxazol-4-yl)-1H-benzo[d]imidazol-4-yl)di(pyridin-2-yl)methanol]

EC50 (c-Myc in MM.1S cells): 5.7 nM
EC50 (MM.1S cells): 17.8 nM
SMILES: Cc1noc(C)c1-c1cc(C(O)(c2cccnn2)C2CCCO2)c2nc(C3CC3)[nH]c2c1 (single isomer, unassigned) [Compound 1020-289, (2-cyclopropyl-6-(3,5-dimethylisoxazol-4-yl)-1H-benzo[d]imidazol-4-yl)(pyridazin-3-yl)(tetrahydrofuran-2-yl)methanol]
EC50 (MT-4 cells): 4.2 nM

IC50 (BRD4-1 [1]; [6]): 4.7 nM
IC50 (BRD4-2 [2]; [7]): 5.6 nM
SMILES: Cc1noc(C)c1-c1cc(C(O)(c2ncccn2)c2ccc(F)cc2F)c2nc(C3CC3)[nH]c2c1 (centres unmarked) [Compound 1020-257, (2-Cyclopropyl-6-(3,5-dimethylisoxazol-4-yl)-1H-benzo[d]imidazol-4-yl)(2,4-difluorophenyl)(pyrimidin-2-yl)methanol]

IC50 (BRD4-1 [1]; [6]): 10.4 nM
IC50 (BRD4-2 [2]; [7]): 13.5 nM
SMILES: Cc1noc(C)c1-c1cc(C(O)(c2ccccc2)c2cccnc2)c2nc(C3CC3)[nH]c2c1 (centres unmarked) [Compound 1020-112, (2-cyclopropyl-6-(3,5-dimethylisoxazol-4-yl)-1H-benzo[d]imidazol-4-yl)(phenyl)(pyridin-3-yl)methanol]

IC50 (BRD4-1 [1]; [6]): 10.7 nM
IC50 (BRD4-2 [2]; [7]): 12.8 nM
SMILES: Cc1noc(C)c1-c1cc(C(O)(c2ccccc2)c2ccccn2)c2nc(C3CC3)[nH]c2c1 (centres unmarked) [Compound 1020-113, (2-cyclopropyl-6-(3,5-dimethylisoxazol-4-yl)-1H-benzo[d]imidazol-4-yl)(phenyl)(pyridin-2-yl)methanol]
